From US20160030407A1, “Method of Treating Inflammatory Lung Disease” (priority 2010, published 2016)
Values joined by “and” are separate entries in the source; they are usually repeats but may differ in a detail not shown here. Equal values may be shown once. “Also recorded” adds a separate entry of the source.

Legend:
[1] = Single i.v. dose toxicity: urinalysis; assay type: in vivo, Sprague-Dawley rats; settings: rat; day 15 after single i.v. dose
From the text: (§1) On day 15, urine was collected on all surviving animals for urinalysis. The animals were euthanized and bled via cardiac puncture. Blood was collected for hematology, clinical chemistry, and coagulation analysis. Tissues were collected, weighed, and stored in 10% neutral-buffered formalin for possible future analysis.

NFκB = NFκB luciferase assay (inhibition of TNFα-induced NFκB activity); assay type: cell-based, Human; settings: HEK293 with NFκB luciferase reporter challenged with TNFα
Method: The smokeless tobacco used in these experiments was plain long-leaf Copenhagen tobacco purchased from a local vendor. Crude extract was extracted with methanol and water and clarified by centrifugation and filtration. The alkaloid extract was prepared from sodium hydroxide and methanol extraction, organic phase separation and purification. All treatment samples were prepared as a function of weight (μg/ml), and all samples were diluted in DMSO.
Human […] kidney cells (HEK293) transfected with an NFκB luciferase reporter were challenged with TNFα for three hours, then samples were applied to the challenged cells.
The effect of S-(−)-anatabine on TNFα-induced NFκB activity in vitro was determined as described in Example 1.

[2] = Single i.v. dose toxicity: body weights and food consumption; assay type: in vivo, Sprague-Dawley rats; settings: for Average Daily Food Consumption per Rat: Nicotine 0.75 mg/kg; for Mean weight increase by day 14: single i.v. 0.75 mg/kg nicotine
Method: (§2) Body weight and food consumption was measured daily for 14 days. On day 15, urine was collected on all surviving animals. The animals were euthanized and bled via cardiac puncture, and blood was collected for analysis. Tissues were collected, weighed, evaluated for gross abnormalities, and stored in 10% neutral-buffered formalin.
All animals were observed daily.

[3] = Physical signs after single i.v. dose (Example 3); assay type: in vivo, Sprague-Dawley rats; settings: rat, nicotine 0.4 mg/kg, anatabine 0.10, 0.75, 1.0 mg/kg, tartrate
Method: Four aliquots of each dose level formulation were collected and stored at −80° C. The test compound, corresponding dose level, number of animals, and sample collection times for Phase I of the study are shown in Table 3. The test compound, corresponding dose level, number of animals, and sample collection times for Phase II of the study are shown in Table 4. The physical signs of each animal were monitored following administration of the test compound.

[4] = Single i.v. dose toxicity: necropsy observations and organ weights; assay type: in vivo, Sprague-Dawley rats
Method: as §2, §1

[5] = Single i.v. dose toxicity: coagulation (aPTT, PT); assay type: in vivo, Sprague-Dawley rats; settings: for ACTIVE PARTIAL THROMBOPLASTIN TIME: nicotine 0.75 mg/kg single i.v. dose, tartrate
From the text: as §1

[6] = Group E: Nicotine 0.75 mg/kg (Females), individual animals, tartrate
[7] = Group E: Nicotine 0.75 g/kg Males), individual animals, tartrate
[8] = female animals, Nicotine 0.75 mg/kg, n = 3
[9] = male rats, single i.v. 0.75 mg/kg nicotine, day 15

With CN1CCCC1c1cccnc1.O=C(O)C(O)C(O)C(=O)O (single isomer, unassigned; (-)) [Nicotine, (−) Nicotine hydrogen tartrate, reference compound] the “urinalysis parameters vs controls” value [1] was “no notable differences in any of the urinalysis parameters”, the “Effect on TNFα-induced NFκB-mediated transcription of luciferase” value (NFκB) was “reduce TNFα-induced NFκB-mediated transcription” and the “Average Daily Food Consumption per Rat” value ([2]; Female, day 6, cages 1 and 2, tartrate) was 20.0 grams. For the same compound, the “Average Daily Food Consumption per Rat” value ([2]; Males, day 8, cages 1 and 2, tartrate) was 24.0 grams, the “day 13 B.W.” value ([2]; individual male rats, single i.v. 0.75 mg/kg, tartrate, 0.75 mg/kg) was 330 g and the “B.W. day 6” value ([2]; nicotine 0.75 mg/kg single i.v. dose, day 6, male rats (individual animals), tartrate) was 270 g. For the same compound, the “Mean weight increase by day 14” value ([2]; female rats) was 40.8 g, the “Mean weight increase by day 14” value ([2]; male rats, listed as nicotine, tartrate, 0.75 mg/kg) was “significantly lower than the controls” and the “Mean weight increase by day 14” value ([2]; male rats, tartrate, 0.75 mg/kg) was 98.5 g. The “physical signs post dose” value [3] was “experienced tremors immediately post dose; also recorded: experienced labored breathing”, the “Tissue Collection Weights: Heart” value [4, 6] was 0.83 g and the “Tissue Collection Weights: Lungs” value [4, 6] was 1.20 g. The “Tissue Collection Weights: Ovaries/uterus” value [4, 6] was 0.92 g, the “Tissue Collection Weights: Small intestine” value [4, 6] was 0.41 g and 0.40 g and 0.28 g and the “Tissue Collection Weights: Spleen” value [4, 6] was 0.46 g (2×) and 0.76 g. For the same compound, the “Tissue Collection Weights: Thymus” value [4, 6] was 0.54 g and 0.48 g (2×), the “Tissue Collection Weights: Brain” value [4, 7] was 1.90 g and the “Tissue Collection Weights: Heart” value [4, 7] was 1.20 g. The “Tissue Collection Weights: Prostate” value [4, 7] was 0.41 g and 0.28 g (2×) and 0.45 g, the “Tissue Collection Weights: Small intestine” value [4, 7] was 0.71 g and 0.56 g and 0.53 g and 0.40 g and the “Tissue Collection Weights: Spleen” value [4, 7] was 0.81 g and 0.62 g and 0.78 g and 0.86 g. For the same compound, the “Tissue Collection Weights: Thymus” value [4, 7] was 0.54 g and 0.46 g and 0.56 g and 0.76 g, the “Organ Weight Brain, Mean” value [4, 8] was 1.86 g and the “Organ Weight Heart, Mean” value [4, 8] was 0.99 g. The “Organ Weight Kidneys, Mean” value [4, 8] was 2.31 g, the “Organ Weight Liver, Mean” value [4, 8] was 9.59 g and the “Organ Weight Lungs, Mean” value [4, 8] was 1.32 g. The “Organ Weight Ovaries/uteris, Mean” value [4, 8] was 1.28 g, the “Organ Weight, Small intestine (mean)” value [4, 8] was 0.36 g and the “Organ Weight, Spleen (mean)” value [4, 8] was 0.56 g. For the same compound, the “Organ Weight, Thymus (mean)” value [4, 8] was 0.50 g, the “Organ Weight, Prostate (mean)” value [4, 9] was 0.36 g and the “Organ Weight, Small intestine (mean)” value [4, 9] was 0.55 g. For the same compound, the “Organ Weight, Spleen (mean)” value [4, 9] was 0.77 g, the “Organ Weight, Thymus (mean)” value [4, 9] was 0.58 g and the “organ weights vs vehicle controls” value ([4]; nicotine 0.75 mg/kg, heart, liver and kidneys in males, thymus and heart in females) was “significantly lower than those of the corresponding vehicle controls”. For the same compound, the “aPTT vs vehicle control” value ([5]; male and female rats, nicotine 0.75 mg/kg) was “significantly lower relative to the vehicle control group”, the “ACTIVE PARTIAL THROMBOPLASTIN TIME” value ([5]; female rats, individual animals E6, E9) was 15 s and the “ACTIVE PARTIAL THROMBOPLASTIN TIME” value ([5]; male rats, individual animals E1, E2, E3, E5) was 15 s.
